Test results reported in US6028182A, “Methylphosphonic acid esters, processes for their preparation, and their use” (Hoechst Aktiengesellschaft, priority 1993, dated 2000).
≈ marks a conversion by molar mass, not a printed value. Read-outs that look alike come from different tables or passages of the source.

Assays:
[1] = Toxicity (cytotoxic action) in human T lymphocytes; type: cell-based; details: cem t lymphocytes
Method: (§1) In-vitro HIV tests were carried out with the dinucleoside α-hydroxymethylarylphosphonates 1-3. As a test system human T lymphocytes (CEM/O) were used. The compounds were additionally tested in a thymidine kinase-deficient T-lymphocyte strain (CEM/TK^-). The CEM/O cells were infected both with HIV-1 and with HIV-2. Before the tests, it was ensured that the compounds to be tested were free of free nucleoside (max. 0.5% HPLC) .

[2] = tested on: HIV-2; experiment: In-vitro anti HIV test, HIV-2, thymidine kinase-deficient T-lymphocyte strain CEM/TK^-; type: cell-based, HIV-2 in human T lymphocytes (CEM/TK^-); details: Human immunodeficiency virus 2, CEM-TK(-), read-out: Antiviral activity EC50 CEM/TK^- HIV-2
Method: as §1

[3] = tested on: HIV-2; experiment: In-vitro anti HIV test, HIV-2, human T lymphocytes CEM/O; type: cell-based, HIV-2 in human T lymphocytes (CEM/O); details: Human immunodeficiency virus 2, T-lymphocyte, read-out: Antiviral activity EC50 CEM/O HIV-2
Method: as §1

[4] = tested on: HIV-1; experiment: In-vitro anti HIV test, HIV-1, human T lymphocytes CEM/O; type: cell-based, HIV-1 in human T lymphocytes (CEM/O); details: Human immunodeficiency virus 1, T-lymphocyte, read-out: Antiviral activity EC50 CEM/O HIV-1
Method: as §1

Row | SMILES | CC50 ([1]; read-out: Toxicity CC50) | EC50 [2] | EC50 ([3]; HIV-2, CEM/O cells) | EC50 ([4]; HIV-1, CEM/O cells) | EC50 [3] | EC50 [4] | CC50 [1]
1 | Cc1cn([C@H]2CC[C@@H](COP(=O)(OC[C@@H]3CC[C@H](n4cc(C)c(=O)[nH]c4=O)O3)C(O)c3ccc(N(C)C)cc3)O2)c(=O)[nH]c1=O (some centres unmarked) [Compound 1a, bis(5'-O-2',3'-dideoxythymidine) hydroxy(4-dimethylaminophenyl)methylphosphonate] | > 100 µg/mL | > 100 µg/mL | 7 ± 4.24 µg/mL (≈ 10.8 µM) | 3.25 ± 1.06 µg/mL (≈ 5.02 µM) | – | – | –
2 | COc1ccc(C(O)P(=O)(OC[C@@H]2CC[C@H](n3cc(C)c(=O)[nH]c3=O)O2)OC[C@@H]2CC[C@H](n3cc(C)c(=O)[nH]c3=O)O2)cc1 (some centres unmarked) [Compound 1b, bis(5'-O-2',3'-dideoxythymidine) hydroxy(4-methoxyphenyl)methylphosphonate] | > 20 µg/mL | > 20 µg/mL | 0.55 ± 0.07 µg/mL (≈ 0.867 µM) | 0.5 µg/mL (≈ 0.788 µM) | – | – | –
3 | Cc1ccc(C(O)P(=O)(OC[C@@H]2CC[C@H](n3cc(C)c(=O)[nH]c3=O)O2)OC[C@@H]2CC[C@H](n3cc(C)c(=O)[nH]c3=O)O2)cc1 (some centres unmarked) [Compound 1c, bis(5'-O-2',3'-dideoxythymidine) hydroxy(4-methylphenyl)methylphosphonate] | > 100 µg/mL | > 100 µg/mL | 10 µg/mL (≈ 16.2 µM) | 3.25 ± 1.06 µg/mL (≈ 5.25 µM) | – | – | –
4 | Cc1cn([C@H]2CC[C@@H](COP(=O)(OC[C@@H]3CC[C@H](n4cc(C)c(=O)[nH]c4=O)O3)C(O)c3ccccc3)O2)c(=O)[nH]c1=O (some centres unmarked) [Compound 1d, bis(5'-O-2',3'-dideoxythymidine) hydroxy(phenyl)methylphosphonate] | > 100 µg/mL | > 100 µg/mL | 13.3 ± 2.9 µg/mL (≈ 22 µM) | 2.93 ± 1.85 µg/mL (≈ 4.85 µM) | – | – | –
5 | Cc1cn([C@H]2CC[C@@H](COP(=O)(OC[C@@H]3CC[C@H](n4cc(C)c(=O)[nH]c4=O)O3)C(O)c3ccc(Cl)cc3)O2)c(=O)[nH]c1=O (some centres unmarked) [Compound 1e, bis(5'-O-2',3'-dideoxythymidine) hydroxy(4-chlorophenyl)methylphosphonate] | > 100 µg/mL | > 100 µg/mL | 4 µg/mL (≈ 6.26 µM) | 4 µg/mL (≈ 6.26 µM) | – | – | –
6 | Cc1cn([C@H]2CC[C@@H](COP(=O)(OC[C@@H]3CC[C@H](n4cc(C)c(=O)[nH]c4=O)O3)C(O)c3c(Cl)cccc3Cl)O2)c(=O)[nH]c1=O (some centres unmarked) [Compound 1f, bis(5'-O-2',3'-dideoxythymidine) hydroxy(2,6-dichlorophenyl)methylphosphonate] | > 20 µg/mL | > 20 µg/mL | – | – | 2 µg/mL (≈ 2.97 µM) | 1.4 ± 0.85 µg/mL (≈ 2.08 µM) | –
7 | Cc1cn([C@H]2CC[C@@H](COP(=O)(OC[C@@H]3CC[C@H](n4cc(C)c(=O)[nH]c4=O)O3)C(O)c3ccc(C#N)cc3)O2)c(=O)[nH]c1=O (some centres unmarked) [Compound 1g, bis(5'-O-2',3'-dideoxythymidine) hydroxy(4-cyanophenyl)methylphosphonate] | > 100 µg/mL | > 100 µg/mL | 7.7 ± 4.6 µg/mL (≈ 12.2 µM) | 3.93 ± 3.1 µg/mL (≈ 6.24 µM) | – | – | –
8 | Cc1cn([C@H]2CC[C@@H](COP(=O)(OC[C@@H]3CC[C@H](n4cc(C)c(=O)[nH]c4=O)O3)C(O)c3ccc([N+](=O)[O-])cc3)O2)c(=O)[nH]c1=O (some centres unmarked) [Compound 1h, bis(5'-O-2',3'-dideoxythymidine) hydroxy(4-nitrophenyl)methylphosphonate] | > 100 µg/mL | > 100 µg/mL | 3 ± 1.41 µg/mL (≈ 4.62 µM) | 2.25 ± 0.35 µg/mL (≈ 3.46 µM) | – | – | –
9 | Cc1cn([C@H]2CC[C@@H](COP(=O)(OC[C@@H]3CC[C@H](n4cc(C)c(=O)[nH]c4=O)O3)C(O)c3ccc([N+](=O)[O-])cc3[N+](=O)[O-])O2)c(=O)[nH]c1=O (some centres unmarked) [Compound 1j, bis(5'-O-2',3'-dideoxythymidine) hydroxy(2,4-dinitrophenyl)methylphosphonate] | – | > 100 µg/mL | 3.5 ± 0.71 µg/mL (≈ 5.04 µM) | 2 µg/mL (≈ 2.88 µM) | – | – | > 100 µg/mL
10 | COc1ccc(C(O)P(=O)(OC[C@@H]2C=C[C@H](n3cc(C)c(=O)[nH]c3=O)O2)OC[C@@H]2C=C[C@H](n3cc(C)c(=O)[nH]c3=O)O2)cc1 (some centres unmarked) [Compound 2b, bis(5'-O-2',3'-dideoxy-2',3'-didehydrothymidine)hydroxy(4-methoxyphenyl)methylphosphonate] | > 20 µg/mL | > 100 µg/mL | 0.12 ± 0.06 µg/mL (≈ 0.19 µM) | 0.1 ± 0.065 µg/mL (≈ 0.159 µM) | – | – | –
11 | Cc1ccc(C(O)P(=O)(OC[C@@H]2C=C[C@H](n3cc(C)c(=O)[nH]c3=O)O2)OC[C@@H]2C=C[C@H](n3cc(C)c(=O)[nH]c3=O)O2)cc1 (some centres unmarked) [Compound 2c, bis(5'-O-2',3'-dideoxy-2',3'-didehydrothymidine)hydroxy(4-methylphenyl)methylphosphonate] | > 20 µg/mL | > 100 µg/mL | 0.33 ± 0.24 µg/mL (≈ 0.537 µM) | 0.12 ± 0.064 µg/mL (≈ 0.195 µM) | – | – | –
12 | Cc1cn([C@H]2C=C[C@@H](COP(=O)(OC[C@@H]3C=C[C@H](n4cc(C)c(=O)[nH]c4=O)O3)C(O)c3ccccc3)O2)c(=O)[nH]c1=O (some centres unmarked) [Compound 2d, bis(5'-O-2',3'-dideoxy-2',3'-didehydrothymidine)hydroxy(phenyl)methylphosphonate] | > 100 µg/mL | > 100 µg/mL | 0.19 ± 0.19 µg/mL (≈ 0.316 µM) | 0.16 µg/mL (≈ 0.266 µM) | – | – | –
13 | Cc1cn([C@H]2C=C[C@@H](COP(=O)(OC[C@@H]3C=C[C@H](n4cc(C)c(=O)[nH]c4=O)O3)C(O)c3ccc(Cl)cc3)O2)c(=O)[nH]c1=O (some centres unmarked) [Compound 2e, bis(5'-O-2',3'-dideoxy-2',3'-didehydrothymidine)hydroxy(4-chlorophenyl)methylphosphonate] | > 100 µg/mL | > 100 µg/mL | 0.12 ± 0.06 µg/mL (≈ 0.189 µM) | 0.1 ± 0.05 µg/mL (≈ 0.157 µM) | – | – | –
14 | Cc1cn([C@H]2C=C[C@@H](COP(=O)(OC[C@@H]3C=C[C@H](n4cc(C)c(=O)[nH]c4=O)O3)C(O)c3c(Cl)cccc3Cl)O2)c(=O)[nH]c1=O (some centres unmarked) [Compound 2f, bis(5'-O-2',3'-dideoxy-2',3'-didehydrothymidine)hydroxy(2,6-dichlorophenyl)methylphosphonate] | > 100 µg/mL | > 20 µg/mL | 0.12 ± 0.06 µg/mL (≈ 0.179 µM) | 0.056 ± 0.034 µg/mL (≈ 0.0837 µM) | – | – | –
15 | Cc1cn([C@H]2C=C[C@@H](COP(=O)(OC[C@@H]3C=C[C@H](n4cc(C)c(=O)[nH]c4=O)O3)C(O)c3ccc(C#N)cc3)O2)c(=O)[nH]c1=O (some centres unmarked) [Compound 2g, bis(5'-O-2',3'-dideoxy-2',3'-didehydrothymidine)hydroxy(4-cyanophenyl)methylphosphonate] | > 100 µg/mL | > 100 µg/mL | 0.33 ± 0.24 µg/mL (≈ 0.528 µM) | 0.091 ± 0.065 µg/mL (≈ 0.145 µM) | – | – | –
16 | Cc1cn([C@H]2C=C[C@@H](COP(=O)(OC[C@@H]3C=C[C@H](n4cc(C)c(=O)[nH]c4=O)O3)C(O)c3ccc([N+](=O)[O-])cc3)O2)c(=O)[nH]c1=O (some centres unmarked) [Compound 2h, bis(5'-O-2',3'-dideoxy-2',3'-didehydrothymidine)hydroxy(4-nitrophenyl)methylphosphonate] | > 100 µg/mL | > 100 µg/mL | 0.12 ± 0.06 µg/mL (≈ 0.186 µM) | 0.066 ± 0.048 µg/mL (≈ 0.102 µM) | – | – | –
17 | Cc1cn([C@H]2C=C[C@@H](COP(=O)(OC[C@@H]3C=C[C@H](n4cc(C)c(=O)[nH]c4=O)O3)C(O)c3ccc([N+](=O)[O-])cc3[N+](=O)[O-])O2)c(=O)[nH]c1=O (some centres unmarked) [Compound 2j, bis(5'-O-2',3'-dideoxy-2',3'-didehydrothymidine)hydroxy(2,4-dinitrophenyl)methylphosphonate] | – | > 100 µg/mL | 0.33 ± 0.24 µg/mL (≈ 0.478 µM) | 0.16 µg/mL (≈ 0.232 µM) | – | – | > 100 µg/mL
